Assay results taken from patent US20200061092A1, “METHODS AND COMPOSITIONS FOR TREATING DISORDERS ASSOCIATED WITH MUSCLE WEAKNESS” (priority 2018, published 2020).

Key:
Assay type in all cases: in vivo, mouse
[1] = system: F-α-DG (functionally glycosylated α-DG); test: Immunohistochemical staining of F-α-DG with IIH6C4 antibody in muscles of ribitol-treated P448L mice
Experimental: Ribitol was purchased from Sigma (A5502 Adonitol, ≥98%, Sigma, St. Louis) and dissolved in drinking water to the final concentration of 5% or 10%. […] mice aged at 4 weeks were treated with 5% ribitol drinking water for 1 month and […] mice aged at 7 weeks were treated with 5% ribitol drinking water for 3 months and 6 months. All the mice were randomly assigned to either treatment or control groups. And a minimum number of 4 mice were used for each group. No animal was excluded. […] female breeders were given 10% ribitol in drinking water during pregnancy, and pups continued to be treated with 10% ribitol in drinking water until they were euthanized at 19 weeks of age. Untreated age-matched […] and wild-type C57BL/6 mice were used as controls. The animals were terminated at the end of each treatment time point and tissues including heart, diaphragm, TA, quadriceps, liver, spleen and kidney were collected for analyses. […] For immunohistochemical detection of functionally glycosylated α-DG, […] of thickness cross sections of untreated and C57 control, as well as tissues from treated cohorts were included in each slide. Slides were first fixed in ice cold Ethanol:Acetic acid (1:1) for 1 min, blocked with 10% normal goat serum (NGS) in […]-buffer saline (TBS) for 30 min at room temperature, and incubated overnight at 4° C. with primary mouse monoclonal antibody IIH6C4 (EMD Millipore) (1:500) against α-DG. Negative controls received 10% normal goat serum in 1×TBS only. Sections were washed and incubated with secondary AlexaFLuor 488 goat anti-mouse IgM (Invitrogen) (1:500) at room temperature for 2 hr. […] Immunofluorescence was visualized using an Olympus BX51/BX52 fluorescence microscope (Opelco) and images were captured using the Olympus DP70 digital camera system (Opelco). Slides were examined in a blinded manner by the investigator.

FKRP P448L mutant mice [2] = test: Ribitol toxicity evaluation: body weight, histology of liver, kidney and spleen, serum biochemical markers
Experimental: All animal studies were approved by the Institutional Animal Care and Use Committee (IACUC) of Carolinas Medical Center. All mice were housed in the vivarium of Carolinas Medical Center following animal care guidelines of the institute. Animals were ear tagged prior to group assignment. Food and water were available ad libitum during all phase of the study. Body weight was measured from 6 weeks to 19 weeks of age.
(§1) Ribitol was purchased from Sigma (A5502 Adonitol, ≥98%, Sigma, St. Louis) and dissolved in drinking water to the final concentration of 5% or 10%. P448L mice aged at 4 weeks were treated with 5% ribitol drinking water for 1 month and P448L mice aged at 7 weeks were treated with 5% ribitol drinking water for 3 months and 6 months. All the mice were randomly assigned to either treatment or control groups. And a minimum number of 4 mice were used for each group. No animal was excluded. P448L female breeders were given 10% ribitol in drinking water during pregnancy, and pups continued to be treated with 10% ribitol in drinking water until they were euthanized at 19 weeks of age. Untreated age-matched P448L and wild-type C57BL/6 mice were used as controls. The animals were terminated at the end of each treatment time point and tissues including heart, diaphragm, TA, quadriceps, liver, spleen and kidney were collected for analyses.
Frozen tissues were processed for hematoxylin and eosin (H&E) and Masson's Trichrome staining following standard procedures. Muscle cross-sectional fiber equivalent diameter was determined from tibialis anterior and quadriceps stained with H&E using MetaMorph v7.7 Software (Molecular Devices). Percentage of centrally nucleated myofibers were manually quantified from the same tissue sections stained with H&E. Fibrotic area represented by blue staining in the Masson's Trichrome stained sections was quantified from heart, diaphragm, tibialis anterior and quadriceps using ImageJ software. For all the morphometric analyses, a total of 300 to 400 fibers from two representative 20× magnification images per each muscle per animal were used.

FKRP P448L mutant mice [3] = test: Histopathological and morphometric analysis (H&E, Masson's Trichrome) of muscles of P448L mice
Experimental: as §1, with “P448L” left out, “analyses. Frozen tissues were processed for hematoxylin and eosin (H&E) and Masson's Trichrome staining following standard procedures. Muscle cross-sectional fiber equivalent diameter was determined from tibialis anterior and quadriceps stained with H&E using MetaMorph v7.7 Software (Molecular Devices). Percentage of centrally nucleated myofibers were manually quantified from the same tissue sections stained with H&E. Fibrotic area represented by blue staining in the Masson's Trichrome stained sections was quantified from heart, diaphragm, tibialis anterior and quadriceps using ImageJ software. For all the morphometric analyses, a total of 300 to 400 fibers from two representative 20× magnification images per each muscle per animal were used.” for “analyses.”

[4] = 10% ribitol from pregnancy to 19 weeks

**Q.** How did the “F-α-DG signal by IIH6C4 immunohistochemistry” value ([1]; 5% ribitol in drinking water, 1 month, 4-week-old P448L mice, heart, diaphragm, limb muscles) turn out when `OC[C@@H](O)[C@@H](O)[C@@H](O)CO` [ribitol] was run?
**A.** visibly increased F-α-DG

**Q.** What about the “F-α-DG levels by IIH6C4 immunofluorescence” value ([1]; 5% ribitol in drinking water, 3 and 6 months, from 7 weeks of age, all muscles) of the same compound?
**A.** clear increase in the levels of F-α-DG

**Q.** What about the “Expression of F-α-DG by immunohistochemistry” value ([1]; 10% ribitol in drinking water from pregnancy to 19 weeks of age) of the same compound?
**A.** detected in all skeletal muscles and in the cardiac muscle

**Q.** What about the “Histology of liver, kidney and spleen (H&E)” value (FKRP P448L mutant mice [2]; 5% ribitol, 3 or 6 months) of the same compound?
**A.** normal structure without degeneration and inflammation

**Q.** And the “Serum markers of liver and kidney function (ALP, ALT, t-Bil, c-Bil, unc-Bil, BUN, Crea), treated vs untreated” value (FKRP P448L mutant mice [2]; 5% ribitol, 6 months)?
**A.** No statistical significance

**Q.** What about the “Serum triglycerides (TRG) and glucose (GLU), treated vs untreated” value (FKRP P448L mutant mice [2]; 5% ribitol, 6 months) of the same compound?
**A.** similar

**Q.** And the “Body weight vs age-matched untreated P448L” value (FKRP P448L mutant mice [2]; 10% ribitol from embryonic stage or 5% ribitol from 7 weeks of age, all time points)?
**A.** No significant difference

**Q.** And the “Effect on pregnancy, embryo development, body weight and overall behavior” value (FKRP P448L mutant mice [2]; oral ribitol from pregnancy to adult)?
**A.** does not affect

**Q.** And the “Fibrotic area in cardiac muscle vs untreated” value (FKRP P448L mutant mice [3]; 5% ribitol, 3 and 6 months)?
**A.** significant reduction

**Q.** And the “Number of fibers with small diameters (TA and quadriceps)” value (FKRP P448L mutant mice [3]; 5% ribitol, 3 and 6 months)?
**A.** statistically significant decrease

**Q.** And the “Percentage of CNF (TA and quadriceps) vs untreated” value (FKRP P448L mutant mice [3]; 5% ribitol, 3 and 6 months)?
**A.** No significant difference

**Q.** What about the “Areas of fibrotic tissue (Masson's Trichrome) vs untreated” value (FKRP P448L mutant mice [3]; 5% ribitol, 3 and 6 months, limb muscles) of the same compound?
**A.** significantly decreased

**Q.** And the “Fibrotic tissue in diaphragm (% of tissue cross-section area)” value (FKRP P448L mutant mice [3]; 5% ribitol, 3 month treatment)?
**A.** 11%

**Q.** What about the “Fibrotic tissue in diaphragm (% of tissue cross-section area)” value (FKRP P448L mutant mice [3]; 5% ribitol, 6 month treatment) of the same compound?
**A.** 18%

**Q.** What about the “Centrally nucleated fibers (CNF) in TA vs untreated” value (FKRP P448L mutant mice [3]; [4]) of the same compound?
**A.** significantly fewer

**Q.** And the “Fibrosis in cardiac muscle and diaphragm” value (FKRP P448L mutant mice [3]; [4])?
**A.** reduction in fibrosis was significant in cardiac muscle, and most prominent in the diaphragm
